Laboratory results: patent US20020164581A1 (priority 2001, published 2002)

How the values were obtained:
[1] = test system: bovine aortic endothelial cells (bAECs); test: Lysophosphatidylcholine or homocysteine/Cu2+ challenge of E2-pretreated cells, cell survival; format: cell-based
Procedure: Prior to E2 pretreatment, cells were grown in phenol red-free DMEM supplemented with 10% dextran/charcoal-stripped FBS for at least 1 passage (3-4 days). Phenol red-free Dulbecco's modified medium was used to avoid potential estrogenic interference. Serum steroid deprivation was conducted according to the conditions described by Yeh et al. (Proc. Natl. Acad. Sci. USA 95:5527-5532, 1998). The E2 level in the stripped serum was assayed using an [^125I] 17β-estradiol radioimmunoassay kit (TKE21, Diagnostic Products Corporation, Los Angeles, Calif.). […] The cells grown in E2-free environments were plated onto Falcon 24-well Primariae™ plates at a density of 5×10^4 cells/well. […]
Cell survival after oxidative challenge was assessed with a 3-(4,5-dimethylthiazol-2-yl) 2,5 diphenyltetrazolium bromide (MTT) assay in which the mitochondrial dehydrogenase activity of viable cells reduces MTT to a blue formazan product (Carmichael et al. Cancer Res. 47:936-942, 1987). […] Following cell lysis, the absorbency was measured at 570 nm and used as an indicator of relative cell survival. The surviving fraction was calculated as compared to the cells without paraquat challenge.

[2] = test system: antioxidant enzymes (SOD, CAT, GPX, GR) in bAECs; test: Antioxidant enzyme (AOE) activities in cell lysates, all four enzymes together; format: cell-based, bovine
Procedure: […] The cells were then lysed on ice by sonication at a setting of 50 mW, with 3×15 set cycles using a Cole-Parmer Ultrasonic Homogenizer (Chicago, Ill.). Protein concentrations in the samples were determined by the Bradford method with bovine serum albumin as a standard (Bradford, Anal. Biochem. 72:248-254, 1976).
(§1) SOD activity was determined by a method based on the ability of SOD to suppress epinephrine auto-oxidation (Misra and Fridovich, J.Biol. Chem. 247:3170-3175, 1972). One unit of SOD activity is defined as the amount of protein that inhibits the oxidation of epinephrine by 50%. Briefly, 100 μl of 10×-diluted cell homogenate (about 10 μg protein) was added to 900 μl of carbonate buffer (0.1 M NaHCO3, 0.1 M Na2CO3, 0.1 mM EDTA, pH 10.2) containing 0.7 mM of epinephrine. The absorbency of the mixture was measured for 4 minutes at 480 nm using a Hitachi U-2000 spectrophotometer (Hitachi, San Jose, Calif.).
CAT activity was determined by the method of Aebi (Methods Enzymol. 105:121,-126, 1984). One unit of CAT activity is defined as the amount of protein that degrades 1 μmole of H2O2 per minute. Initially, 10 μl of absolute ethanol was mixed with 100 μl of cell homogenates and pre-incubated at 4° C. for 30 minutes. Following the addition of 10 μl Triton X-100 (reduced form), a 100 μl aliquot (about 100 μg of protein) of the resultant mixture was next added to 500 μl of hydrogen peroxide (66 mM) and 400 μl of phosphate buffer (0.1 M NaH2PO4, 0.1 M Na2HPO4, 0.1 mM EDTA, pH 7.0). The absorbency of the mixture was monitored for one minute at 240 nm spectrophotometrically. The molar extinction coefficient of 43.6 M/cm was used to determine the catalase activity.
GPX activity was determined by a modified method of Flohe and Gunzler (Methods Enzymol. 105:114-121, 1984). One unit of GPX activity is defined as the amount of protein that oxidizes 1 nmole of β-NADPH per minute. In this assay, 100 μl of cell homogenate (about 100 μg protein) was added to 800 μl of phosphate buffer (0.1 M NaH2PO4, 0.1 M Na2HPO4, 0.1 mM EDTA, pH 7.0) containing 12.5 mM glutathione (reduced form, GSH), 0.2 mM β-nicotinamide adenine dinucleotide phosphate (reduced form, β-NADPH), and 0.34 U glutathione reductase. This mixture was pre-incubated at 37 C for 10 minutes and then 100 μl of 12 mM t-butyl hydroperoxide was added. The absorbency of the mixture was determined at 340 nm for 3 minutes. The molar extinction coefficient of 6.22 mM/cm was used to determine the activity of GPX.
(§2) GR activity was determined by a modified method of Carlberg and Mannervik (Methods Enzymol. 11 3:484-490, 1985). One unit of GR activity is defined as the amount of protein that oxidizes 1 nmole of β-NADPH per minute. Briefly, 50 μl of 2 mM β-NADPH in 10 mM Tris buffer (pH 7.0) was added to a cuvette containing 50 μl of 20 mM glutathione (oxidized ofrm, GSSG) in phosphate buffer (0.1 M NaH2PO4, 0.1 M Na2HPO4, 0.1 mM EDTA, pH 7.0) and 800 μl of phosphate buffer. Following the addition of cell homogenate (about 100 μg protein/100 μl) the final mixture was measured at 340 nm for 3 minutes. The molar extinction coefficient of 6.22 mM/cm was used to determine the activity of […].

[3] = test system: superoxide dismutase (SOD); test: SOD activity in cell lysate (epinephrine auto-oxidation); format: cell-based, bovine
Procedure: (§3) Cells pretreated with different concentrations of E2 for 24 hours were harvested in a solution containing 50 mM Tris-HCl (pH 7.4), 1 mM EDTA, 2 μg/ml pepstatin A, 10 μg/ml benzamidine, and 10 μg/ml trypsin inhibitor. The cells were then lysed on ice by sonication at a setting of 50 mW, with 3×15 set cycles using a Cole-Parmer Ultrasonic Homogenizer (Chicago, Ill.). Protein concentrations in the samples were determined by the Bradford method with bovine serum albumin as a standard (Bradford, Anal. Biochem. 72:248-254, 1976).
as §1

[4] = test system: glutathione reductase (GR); test: GR activity in cell lysate (NADPH oxidation); format: cell-based, bovine
Procedure: as §3, §2

[5] = test system: cardiomyocytes; conditions: cited from earlier work
[6] = 1 nM E2 pretreatment (Example 8)
[7] = female bAECs, 24 h 1 nM E2 (Example 12)

SMILES: C[C@]12CC[C@@H]3c4ccc(O)cc4CC[C@H]3[C@@H]1CC[C@@H]2O [E2, 17β-estradiol]
- survival after homocysteine/Cu2+ challenge ([1]; homocysteine/Cu2+ 1 mM/25 μM, 3 hours): gained survival benefit
- survival after lysophosphatidylcholine challenge ([1]; lysophosphatidylcholine 10 μg/ml, 60 min): gained survival benefit
- AOE activities after brief incubation ([2]; 1 nM E2, 30 minutes): did not affect the activities of AOEs
- activities of the four antioxidant enzymes ([2]; 1 nM-10 μM E2, 24 h): significant increases in the activities of all four of the enzymes tested
- E2 concentration of optimal AOE induction ([2]; 24 h pretreatment): 1 to 10 nM
- AOE activities ([2]; female bAECs, 24 hour, 1 nM E2): significant elevation of all of the four AOE activities tested
- AOE activities ([2]; male bAECs incubated with 1 nM E2): not induced
- SOD activity elevation relative to untreated cells [3, 6]: approximately 4 fold
- SOD activity increase [3, 7]: about 4 fold
- GR activity elevation relative to untreated cells [4, 6]: ~3 fold
- GR activity increase [4, 7]: ~2 fold
- effect on high K+-induced Ca++ loading or hypercontracture [5]: prevent high K+-induced intracellular Ca++ loading or hypercontracture
